# Measurements from patent US11839623B2, “Antiviral prodrugs and formulations thereof” (BOARD OF REGENTS OF THE UNIVERSITY OF NEBRASKA, priority 2018, dated 2023).
# Key:
# [1] = test system: HIV-1ADA; test: IC50 determination of ABC, MABC, PABC in MDM challenged with HIV-1ADA (RT activity); type: cell-based; details: Human immunodeficiency virus 1, 240 h, HIV-1ADA MOI 0.1, RT activity day 10, read-out: IC50 on reverse transcriptase
# Description: Antiretroviral activities. Antiretroviral efficacy was determined by measurements of HIV reverse transcriptase (RT) activity. For IC50 determination, MDM were exposed to various concentrations (0.01-1000 nM) of ABC, MABC or PABC for 1 hour followed by challenge with HIV-1ADA at a multiplicity of infection (MOI) of 0.1 infectious particles per cell for 4 hours. Following viral challenge, cells were washed and incubated with the same concentration of drug used before infection for an additional 10 days in culture. Culture fluids were collected on day 10 for the measurement of RT activity. To assess antiretroviral efficacy, MDM were treated with 100 μM ABC, PABC or NPABC as described above for 8 hours. After treatment, cells were washed with PBS and cultured with fresh media, with half-media exchanges every other day. At 0, 4, 12 hours, and 1, 5, 10, 15 or 20 days after treatment, cells were challenged with HIV-1ADA at an MOI of 0.1 infectious particles per cell for 16 hours. After viral infection, the cells were cultured an additional 10 days with half-media exchanges every other day. Culture fluids were collected for measurement of RT activity. Cells were fixed with 4% PFA and expression of HIV-1 p24 antigen was determined by immunocytochemistry.
# [2] = test system: HIV-1ADA; test: Antiretroviral efficacy of nanoformulations in MDM challenged with HIV-1ADA (RT activity, p24); type: cell-based; details: 100 μM 8 hours, all time points
# Description: Antiretroviral efficacy of nanoformulations: Antiviral efficacies of ABC and the ProTide nanoformulations in MDM were assessed as described (Singh, et al., Nanomedicine (2016) 11:1913-1927). MDM were treated with 100 μM different nanoformulations for 8 hours. Then nanoformulation-containing medium was replaced with fresh medium after washing MDM with PBS twice. Half media changes were conducted every other day. At predetermined time points, days 1, 5, 10, 15, 20, 25 and 30, MDM were infected with HIV-1ADA for 4 hours at a MOI of 0.1 and cultured with every-other-day half media changes for an additional 10 days. At day 10, supernatant was collected for RT assay and MDM were fixed with paraformaldehyde and immunostained for expression of HIVp24. Untreated, uninfected MDM served as negative controls (control), while MDM exposed to HIV-1ADA but not treated with nanoformulations, served as positive controls (HIV-1). For NM3ABC, a concentration response study was also conducted. MDM were treated with 1, 10, 25, 50 or 100 μM NM3ABC for 8 hours. The treated MDM were then washed twice with PBS. MDM were cultured for an additional 30 days in fresh media with half media changes every other day. At day 30, MDM were challenged with HIV-1ADA at a MOI of 0.1 for 4 hours. Excess virus was washed out with PBS and MDM were cultured for another 10 days. […]
# [3] = test system: monocyte-derived macrophages (MDM); test: Macrophage uptake and retention of ABC, NMABC, NPABC; type: cell-based, human; details: 100 μM, 8 hours loading
# Description: Macrophage uptake and retention. Human monocytes were obtained by leukapheresis from HIV-1/2 and hepatitis B seronegative donors, and then purified by counter-current centrifugal elutriation as described (Balkundi, et al., Intl. J. Nanomed. (2011) 6:3393-3404; Nowacek, et al., Nanomed. (2009) 4(8):903-917). Human monocytes were plated in a 12-well plate at a density of 1.0×10^6 cells per well using DMEM supplemented with 10% heat-inactivated pooled human serum, 1% glutamine, 10 μg/mL ciprofloxacin, and 50 μg/mL gentamicin. Cells were maintained at 37° C. in a 5% CO2 incubator. After 7 days of differentiation in the presence of 1000 U/mL recombinant human macrophage colony stimulating factor (MCSF), MDM were treated with 100 μM ABC, nanoformulated myristoylated ABC (NMABC; described in PCT/US15/54826), or NPABC. Uptake of drug was assessed by measurements of intracellular drug concentrations at 1, 2, 4 and 8 hours after treatment. For drug retention studies, cells were treated for 8 hours then washed with PBS and maintained with half-media changes every other day until collection at days 1, 5, 10, 15 and 20. For both studies, adherent MDM were washed with PBS, then scraped into PBS, and counted at indicated time points using an Invitrogen Countess Automated Cell Counter (Carlsbad, Calif.). […] Drug content was determined by UPLC-UV/Vis.
# [4] = test system: monocyte-derived macrophages (MDM); test: Intracellular CBV-TP in MDM after 100 μM ABC or ProTide nanoformulations (uptake and retention); type: cell-based; details: human
# Description: Briefly, MDM were treated with different nanoformulations at a concentration of 100 μM for 1, 2, 4 and 8 hours. At select time points, adherent MDM were collected in 1 mL PBS after washing with 1 mL PBS twice. MDM were pelleted by centrifugation at 3,000 rpm for 8 minutes. The cell pellet was reconstituted in 200 μl methanol and probe sonication (10 seconds) was used to break the cells and extract drugs. After probe sonication, cell debris was pelleted by centrifugation at 14,000 rpm for 10 minutes and 4° C. The supernatant was analyzed for prodrug level using HPLC-UV/Vis. For retention, MDM were treated with 100 μM different nanoformulations for 8 hours. The nanoformulation-containing media were replaced with fresh media after washing MDM with PBS twice. At days 1, 5, 10, 15, 20, 25 and 30, MDM were collected in 1 mL PBS after washing with 1 mL PBS twice. The samples were processed as described above for analysis using HPLC. Intracellular CBV-TP levels were also measured for as an indicator of cell uptake and retention. Briefly, cells were scraped into PBS, pelleted by centrifugation at 3,000 rpm for 8 minutes, and reconstituted in 200 μl 70% methanol. CBV-TP was extracted, and the samples were analyzed by LC-MS/MS as described (Gautam, et al., J. Pharm. Biomed. Anal. (2018) 153:248-259).
smiles,measurement,setting,value
"Nc1nc(NC2CC2)c2ncn([C@H]3C=C[C@@H](CO)C3)c2n1 [ABC, abacavir]",IC50,[1],131 nM
same,protection against viral infection,[2],minimal protection against viral infection
same,eliminated from MDM within,[3],within a day
same,decrease of CBV-TP from 4 hours to 8 hours,[4],37%
same,"retention of CBV-TP in MDMs, detected/sustained until day",[4]; 30 day,5 days
